Molecular target: T1, EGFR-expressing A431 cells (Homo sapiens, UniProt P00533)
T1 construct: host or cells: A431 cells
Assay: Confocal fluorescence microscopy binding
Type: cell-based
Conditions: 10 ug/mL, 2 hr at 37° C.
Protocol: A431, SKOV3, and NIH3T3 cells were obtained from ATCC (Manassas, Va.). The NIH3T3 cells were transfected with HER2 genes (3T3/HER2+), in order to overexpress HER2 receptors (Di Fiore et al., Science 1987, 237, 178-182). All of the cell lines were grown at 37° C. in the presence of 5% CO2 in DMEM medium supplemented with 1% L-glutamine, and 5% FBS. For the confocal fluorescence microscopy experiments cells were plated in Lab-Tek chambered slides (#178599 Nalge Nunc) at an appropriate dilution and allowed to attach overnight at 37° C. prior to treatment. […] The individual cell lines seeded on chambered slides with 60-80% confluency were incubated for 2 hr at 37° C. in the dark. After incubation the cell culture medium was removed and slides were washed three times with PBS (pH=7.4) and immediately fixed in 4% paraformaldehyde prepared in PBS (pH=7.4) for 5 min at room temperature. Fluorescent mounting medium (S3023, DakoCytomation) was added at the time the slide was covered with a cover glass to stabilize the fluorophores before and during confocal microscopy. […] Fluorescence (Cy5.5 or Cy7) and DIC images were collected simultaneously using a 63x Plan-Apochromat 1.4 NA oil immersion objective and a long pass 650 nm emission filter. […]

T1 sequence (P00533 25-1210): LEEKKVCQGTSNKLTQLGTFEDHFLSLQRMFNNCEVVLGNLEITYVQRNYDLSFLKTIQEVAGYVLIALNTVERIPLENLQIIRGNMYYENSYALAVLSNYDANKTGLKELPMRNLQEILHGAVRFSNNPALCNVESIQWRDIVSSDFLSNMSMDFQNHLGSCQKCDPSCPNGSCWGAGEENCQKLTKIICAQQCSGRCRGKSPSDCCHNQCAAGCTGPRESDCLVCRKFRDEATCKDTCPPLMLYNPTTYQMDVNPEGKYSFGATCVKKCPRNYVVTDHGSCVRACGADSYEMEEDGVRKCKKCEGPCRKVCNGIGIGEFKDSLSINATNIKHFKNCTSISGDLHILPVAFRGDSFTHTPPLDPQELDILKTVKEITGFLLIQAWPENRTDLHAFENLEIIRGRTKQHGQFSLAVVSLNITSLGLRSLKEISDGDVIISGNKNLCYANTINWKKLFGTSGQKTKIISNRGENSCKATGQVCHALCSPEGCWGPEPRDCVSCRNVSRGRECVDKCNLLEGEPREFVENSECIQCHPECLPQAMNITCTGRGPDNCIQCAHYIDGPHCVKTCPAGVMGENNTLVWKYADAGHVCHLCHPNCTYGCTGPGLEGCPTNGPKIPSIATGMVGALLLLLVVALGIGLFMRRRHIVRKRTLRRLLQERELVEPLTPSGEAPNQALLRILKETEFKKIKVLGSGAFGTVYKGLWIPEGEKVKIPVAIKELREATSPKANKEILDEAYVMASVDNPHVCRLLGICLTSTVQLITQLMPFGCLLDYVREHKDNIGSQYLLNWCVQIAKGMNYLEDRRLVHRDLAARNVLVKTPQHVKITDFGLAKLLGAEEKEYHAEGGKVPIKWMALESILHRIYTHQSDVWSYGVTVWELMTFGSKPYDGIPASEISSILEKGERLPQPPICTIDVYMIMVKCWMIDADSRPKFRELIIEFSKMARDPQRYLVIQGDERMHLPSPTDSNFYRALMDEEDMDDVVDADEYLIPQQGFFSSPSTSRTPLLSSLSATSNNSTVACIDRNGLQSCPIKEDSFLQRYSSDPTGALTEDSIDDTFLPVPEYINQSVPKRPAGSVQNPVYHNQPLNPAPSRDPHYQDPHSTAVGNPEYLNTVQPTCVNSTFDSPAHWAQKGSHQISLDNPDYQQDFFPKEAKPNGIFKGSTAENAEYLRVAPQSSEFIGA

SMILES: CC[N+]1=C(/C=C/C=C/C=C/C=C2/N(CCCCCC(=O)N[C@@H](CCCCNC(=O)C3CCC(CN4C(=O)CC(SCCCC(=N)NC)C4=O)CC3)C(=O)Nc3ccc(C[C@H](CN(CC(=O)O)[C@H]4CCCC[C@@H]4N(CC(=O)O)CC(=O)O)N(CC(=O)O)CC(=O)O)cc3)c3ccc(S(=O)(=O)O)cc3C2(C)C)C(C)(C)c2cc(S(=O)(=O)[O-])ccc21 (stereo partly shown) [imaging agent 11]
- binding / fluorescent labeling: specifically labels

— patent US8535639B2, “Trifunctional imaging agent for monoclonal antibody tumor-targeted imaging” (The United States of America, as represented by the …, priority 2007, dated 2013)
